For data set [1], the target named is T1, Peroxisome proliferator-activated receptor alpha (Homo sapiens, UniProt Q07869).
T1 sequence (Q07869 whole entry): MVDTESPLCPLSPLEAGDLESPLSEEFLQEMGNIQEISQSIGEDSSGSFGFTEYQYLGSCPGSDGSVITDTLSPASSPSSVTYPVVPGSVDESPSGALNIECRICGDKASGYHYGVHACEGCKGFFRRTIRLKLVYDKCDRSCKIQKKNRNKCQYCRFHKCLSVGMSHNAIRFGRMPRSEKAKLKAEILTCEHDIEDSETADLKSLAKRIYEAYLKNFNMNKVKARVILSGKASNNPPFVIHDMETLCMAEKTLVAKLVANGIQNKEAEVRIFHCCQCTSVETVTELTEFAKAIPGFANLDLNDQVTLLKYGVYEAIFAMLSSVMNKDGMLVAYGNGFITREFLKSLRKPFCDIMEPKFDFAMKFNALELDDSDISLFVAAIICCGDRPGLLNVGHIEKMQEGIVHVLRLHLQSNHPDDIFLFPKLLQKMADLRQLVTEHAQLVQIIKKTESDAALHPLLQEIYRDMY
The data set can be described thus: Agonist activity at human PPARalpha expressed in african green monkey CV1 cells by Gal4 transactivation assay. It counts as functional, cell-based, CV-1.

For data set [2], the target named is T2, Peroxisome proliferator-activated receptor delta (Homo sapiens, UniProt Q03181).
T2 sequence (Q03181 whole entry): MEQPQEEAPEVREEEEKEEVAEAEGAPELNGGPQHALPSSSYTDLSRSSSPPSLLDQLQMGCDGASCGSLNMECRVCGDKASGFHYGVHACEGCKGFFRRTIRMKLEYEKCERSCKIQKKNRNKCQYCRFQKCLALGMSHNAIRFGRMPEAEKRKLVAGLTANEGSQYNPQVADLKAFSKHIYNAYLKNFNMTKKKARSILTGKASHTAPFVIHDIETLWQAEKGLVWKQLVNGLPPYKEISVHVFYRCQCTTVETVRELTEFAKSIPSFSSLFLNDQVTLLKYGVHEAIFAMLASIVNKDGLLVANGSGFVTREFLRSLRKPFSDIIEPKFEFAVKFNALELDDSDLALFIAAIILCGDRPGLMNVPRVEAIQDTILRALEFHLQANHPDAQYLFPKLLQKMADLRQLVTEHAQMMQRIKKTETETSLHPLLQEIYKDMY
The data set can be described thus: Agonist activity at human PPARdelta expressed in african green monkey CV1 cells by Gal4 transactivation assay. It counts as functional, cell-based, CV-1.

For data set [3], the target named is T3, Peroxisome proliferator-activated receptor gamma (Homo sapiens, UniProt P37231).
T3 sequence (P37231 whole entry): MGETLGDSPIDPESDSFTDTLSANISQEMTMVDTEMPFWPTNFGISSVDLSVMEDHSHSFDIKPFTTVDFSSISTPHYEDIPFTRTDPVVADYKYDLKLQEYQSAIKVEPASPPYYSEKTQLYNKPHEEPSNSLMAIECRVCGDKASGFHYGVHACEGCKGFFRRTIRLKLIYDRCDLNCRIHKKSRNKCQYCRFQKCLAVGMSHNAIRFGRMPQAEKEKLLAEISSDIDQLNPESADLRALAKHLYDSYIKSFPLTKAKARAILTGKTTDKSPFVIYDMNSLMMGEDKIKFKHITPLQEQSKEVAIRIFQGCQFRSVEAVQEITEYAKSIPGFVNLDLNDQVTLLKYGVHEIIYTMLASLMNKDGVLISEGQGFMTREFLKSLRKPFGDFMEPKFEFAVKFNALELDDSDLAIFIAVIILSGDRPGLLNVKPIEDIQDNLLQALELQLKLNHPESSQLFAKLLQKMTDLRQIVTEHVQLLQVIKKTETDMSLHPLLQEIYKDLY
Description: Agonist activity at human PPARgamma expressed in african green monkey CV1 cells by Gal4 transactivation assay

In data set [4] the target is T1, Peroxisome proliferator-activated receptor alpha. The data set can be described thus: Displacement of radiolabeled GW-2433 from human PPARalpha ligand binding domain expressed in Escherichia coli.
The target in data set [5] is T3, Peroxisome proliferator-activated receptor gamma. This is another data set of the same source.
Description: Displacement of radiolabeled ((5-{4-[Methyl-pyridin-2yl-amino)-ethoxy]-benzyl}-thiazolidine-2,4-dione) from human PPARgamma ligand binding domain expressed in Escherichia coli
Data set [6] concerns the target T2, Peroxisome proliferator-activated receptor delta. The data set can be described thus: Displacement of radiolabeled GW-2433 from human PPARdelta ligand binding domain expressed in Escherichia coli.
Data set [7] has as its target T4, Peroxisome proliferator-activated receptor alpha (Homo sapiens) (UniProt Q07869).
T4 sequence (whole entry): T1 sequence (Q07869 whole entry)
The data set is described as follows: Agonist activity at human PPARalpha expressed in african green monkey CV1 cells by Gal4 transactivation assay relative to SW516. It counts as functional, cell-based. The note with it: CV-1.

For data set [8], the target named is T5, Peroxisome proliferator-activated receptor alpha (Mus musculus, UniProt P23204).
T5 sequence (P23204 whole entry): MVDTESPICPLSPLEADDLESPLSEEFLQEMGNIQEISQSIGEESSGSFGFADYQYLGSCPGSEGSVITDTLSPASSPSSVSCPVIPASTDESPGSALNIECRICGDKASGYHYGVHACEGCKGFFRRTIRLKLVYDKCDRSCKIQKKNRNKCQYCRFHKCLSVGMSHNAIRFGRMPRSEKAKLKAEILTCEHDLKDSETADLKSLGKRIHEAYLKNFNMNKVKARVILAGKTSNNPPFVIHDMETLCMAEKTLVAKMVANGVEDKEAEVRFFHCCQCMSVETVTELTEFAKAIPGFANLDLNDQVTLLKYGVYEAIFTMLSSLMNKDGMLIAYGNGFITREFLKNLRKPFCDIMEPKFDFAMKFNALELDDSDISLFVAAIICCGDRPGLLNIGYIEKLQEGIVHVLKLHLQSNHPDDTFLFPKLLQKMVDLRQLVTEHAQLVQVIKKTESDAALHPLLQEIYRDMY
The data set can be described thus: Agonist activity at mouse PPARalpha expressed in african green monkey CV1 cells by Gal4 transactivation assay. It is filed as functional, cell-based, CV-1.

Data set [9] concerns the target T6, Peroxisome proliferator-activated receptor delta (Mus musculus, UniProt P35396).
T6 sequence (P35396 whole entry): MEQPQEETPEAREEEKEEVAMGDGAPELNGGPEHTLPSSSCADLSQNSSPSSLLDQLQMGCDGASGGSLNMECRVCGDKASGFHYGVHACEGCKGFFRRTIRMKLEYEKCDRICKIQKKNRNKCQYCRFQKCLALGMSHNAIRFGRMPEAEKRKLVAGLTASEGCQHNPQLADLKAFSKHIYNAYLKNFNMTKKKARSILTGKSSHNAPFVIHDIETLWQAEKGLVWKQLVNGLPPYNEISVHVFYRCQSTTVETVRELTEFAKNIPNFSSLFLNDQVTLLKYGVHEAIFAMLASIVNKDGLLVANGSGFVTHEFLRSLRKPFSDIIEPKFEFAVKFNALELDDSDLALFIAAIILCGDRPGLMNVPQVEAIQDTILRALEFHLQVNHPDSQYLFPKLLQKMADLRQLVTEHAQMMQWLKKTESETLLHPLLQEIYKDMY
The data set can be described thus: Agonist activity at mouse PPARdelta expressed in african green monkey CV1 cells by Gal4 transactivation assay. It is filed as functional, cell-based, CV-1.

Data set [10] concerns the target T7, Peroxisome proliferator-activated receptor gamma (Mus musculus, UniProt P37238).
T7 sequence (P37238 whole entry): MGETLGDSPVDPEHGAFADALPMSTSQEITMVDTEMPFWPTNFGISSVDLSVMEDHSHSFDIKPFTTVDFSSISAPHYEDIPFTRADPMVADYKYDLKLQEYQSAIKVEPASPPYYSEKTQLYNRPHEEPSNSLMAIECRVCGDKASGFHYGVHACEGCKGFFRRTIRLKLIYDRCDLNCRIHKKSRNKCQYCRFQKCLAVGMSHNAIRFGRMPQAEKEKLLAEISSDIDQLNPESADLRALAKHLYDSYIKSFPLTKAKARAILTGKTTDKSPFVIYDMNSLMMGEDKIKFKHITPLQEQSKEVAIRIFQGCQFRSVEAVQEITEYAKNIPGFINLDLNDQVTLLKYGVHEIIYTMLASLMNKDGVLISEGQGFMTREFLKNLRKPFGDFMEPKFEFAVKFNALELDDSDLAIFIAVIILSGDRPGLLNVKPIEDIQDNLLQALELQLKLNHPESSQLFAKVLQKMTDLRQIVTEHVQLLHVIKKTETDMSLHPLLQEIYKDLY
The data set can be described thus: Agonist activity at mouse PPARgamma expressed in african green monkey CV1 cells by Gal4 transactivation assay. It counts as functional, cell-based, CV-1.

For data set [11], the system named is Rattus norvegicus. The data set can be described thus: Antidiabetic activity in Zucker fa/fa rat assessed as reduction in hematocrit level in at 10 mg/kg, po twice a day for 5 days. More on the design: scale not given: the % may be the effect or the level left. It counts as functional.
Data set [12] relates to Rattus norvegicus. The data set is described as follows: Antidiabetic activity in Zucker fa/fa rat assessed as reduction in plasma glucose level in at 10 mg/kg, po twice a day for 5 days. It is filed as functional. More on the design: scale not given: the % may be the effect or the level left.
Data set [13] is described as follows: AUC in Zucker fa/fa rat at 5 mg/kg, po. It is filed as ADME, organism-based. More on the design: dose 5 mg/kg, route oral. Conditions: plasma.
The test system of data set [14] is Rattus norvegicus. The data set can be described thus: Antidiabetic activity in Zucker fa/fa rat assessed as reduction in triglyceride level in at 10 mg/kg, po twice a day for 5 days. It counts as functional. More on the design: scale not given: the % may be the effect or the level left.

The record followed here is ChEMBL document CHEMBL1156860, “Synthesis and biological activities of novel indole derivatives as potent and selective PPARgamma modulators” (Bioorg Med Chem Lett, 2010).

Usually EC50 stands for the concentration that produces a half-maximal response. The IC50 is the concentration that inhibits the measured activity by half. Take `CCC(NC(=O)c1ccc2c(c1)c(SC)c(C)n2Cc1ccc(-c2ccccc2C(=O)O)cc1)c1ccccc1` (stereo not given): the values for the EC50 in [1], in data set [2] and in [3] were over 10 µM, over 10 µM and 0.001 µM, respectively. Also, the IC50 in data set [4] is over 10 µM; in [5] it was 0.012 µM; in data set [6], over 10 µM.

On to `CCC(C(=O)Nc1ccc2c(c1)c(C)c(C)n2Cc1ccc(-c2ccccc2C(=O)O)cc1)c1ccccc1` (stereo not given), for which the results for the EC50 in [1] and in data set [3] were 6.14 µM and 0.338 µM, respectively. Besides, the IC50 in [4] was over 10 µM; in [5], 0.574 µM; in [6], over 10 µM. Besides, in data set [7], the Activity amounted to 45%.

As for `Cc1c(C)n(Cc2ccc(-c3ccccc3C(=O)O)cc2)c2ccc(C(=O)NCc3ccccc3)cc12`, the concentration giving a half-maximal response (EC50) in [1] and in [2] was over 10 µM throughout. Moreover, the IC50 in [4] and in data set [6] was over 10 µM throughout.

Turning to `Cc1c(C)n(Cc2ccc(-c3ccccc3C(=O)O)cc2)c2ccc(C(=O)NCCCc3ccccc3)cc12`, the EC50 in data set [1] is over 10 µM; in data set [2], over 10 µM; in [3], 0.022 µM. In addition, the IC50 in data set [4] was over 10 µM; in [5] it was 0.018 µM; in data set [6], over 10 µM.

As to `CCC(NC(=O)c1ccc2c(c1)cc(C)n2Cc1ccc(-c2ccccc2C(=O)O)cc1)c1ccccc1` (stereo not given), the EC50 was 4.96 µM in data set [1], over 10 µM in data set [2] and 0.017 µM in [3]. For the same molecule, the IC50 in [4] is 7.04 µM; in data set [5], 0.018 µM; in [6], over 10 µM. For the same molecule, the Activity in [7] was found to be 114%.

In the case of `CCC(NC(=O)c1ccc2cc(C)n(Cc3ccc(-c4ccccc4C(=O)O)cc3)c2c1)c1ccccc1` (stereo not given), the half-maximal effective concentration (EC50) in data set [1] is over 10 µM; in data set [2], over 10 µM; in data set [3], 0.163 µM. The IC50 was over 10 µM in data set [4], 0.321 µM in data set [5] and over 10 µM in [6].

Consider `CCCc1c(SC)c2cc(NC(=O)C(CC)c3ccccc3)ccc2n1Cc1ccc(-c2ccccc2C(=O)O)cc1` (stereo not given), for which the concentration giving a half-maximal response (EC50) in data set [1] was over 10 µM; in [2], over 10 µM; in data set [3], 0.003 µM. The IC50 was over 10 µM in data set [4], 0.036 µM in data set [5] and over 10 µM in [6].

Turning to `CCCc1nc2c(C)cc(-c3nc4ccccc4n3C)cc2n1Cc1ccc(-c2ccccc2C(=O)O)cc1`, the EC50 was over 10 µM in data set [8]; over 10 µM in data set [1]; over 10 µM in data set [2]; 2.02 µM in data set [3]; over 10 µM in data set [9]; 4.06 µM in data set [10]. Also, the IC50 in data set [4] was over 10 µM; in [5] it was 12.2 µM; in data set [6], over 10 µM.

For the molecule `CCCc1nc2ccc(C(=O)NC(CC)c3ccccc3)cc2n1Cc1ccc(-c2ccccc2C(=O)O)cc1` (stereo not given), the concentration giving a half-maximal response (EC50) in data set [8] is over 10 µM; in data set [1], over 10 µM; in data set [2], over 10 µM; in data set [3], 0.9 µM; in data set [9], over 10 µM; in data set [10] it was 1.69 µM.

The term AUC denotes concentration integrated over time. Take `CN(CCOc1ccc(C[C@H](Nc2ccccc2C(=O)c2ccccc2)C(=O)O)cc1)c1ccccn1`: the Activity in [11] stood at 15%; in data set [12], 21%; in data set [14], 54%. The AUC in data set [13] turned out to be 16500 ng·h/mL.

As for `CCCc1cc2cc(NC(=O)C(CC)c3ccccc3)ccc2n1Cc1ccc(-c2ccccc2C(=O)O)cc1` (stereo not given), the EC50 in data set [1] was over 10 µM; in data set [3] it was 0.002 µM. Besides, the IC50 in data set [4] was over 10 µM; in data set [5], 0.26 µM; in data set [6], over 10 µM.

As to `CCCc1c(SC)c2ccc(NC(=O)C(CC)c3ccccc3)cc2n1Cc1ccc(-c2ccccc2C(=O)O)cc1` (stereo not given), the EC50 in data set [1] is over 10 µM; in [3], 0.201 µM. Besides, the IC50 was over 10 µM in data set [4], 0.49 µM in data set [5] and 6.95 µM in data set [6].
